{"source": "patent US11660293B2", "about": "“Substituted 2-azabicyclo[3.1.1]heptane and 2-azabicyclo[3.2.1]octane derivatives as orexin receptor antagonists” (Chronos Therapeutics Limited, priority 2017, dated 2023)", "key": {"[1]": {"target": "human Orexin type 2 receptors (Homo sapiens (Human), UniProt O43614)", "sequence (O43614 whole entry)": "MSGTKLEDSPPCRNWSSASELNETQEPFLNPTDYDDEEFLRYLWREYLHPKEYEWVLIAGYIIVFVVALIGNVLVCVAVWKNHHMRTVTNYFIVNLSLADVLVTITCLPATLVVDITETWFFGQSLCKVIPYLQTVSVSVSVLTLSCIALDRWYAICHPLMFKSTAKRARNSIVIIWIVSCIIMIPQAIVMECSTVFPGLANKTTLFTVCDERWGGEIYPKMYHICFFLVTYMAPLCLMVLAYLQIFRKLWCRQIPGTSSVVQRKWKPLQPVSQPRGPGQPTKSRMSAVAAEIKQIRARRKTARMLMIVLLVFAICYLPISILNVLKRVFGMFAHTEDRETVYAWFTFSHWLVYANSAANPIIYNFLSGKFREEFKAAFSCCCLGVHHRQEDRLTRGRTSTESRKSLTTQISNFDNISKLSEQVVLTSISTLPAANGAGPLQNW", "test": "Scintillation Proximity Assay (SPA) binding assay, [3H]EMPA displacement, HEK-hOX2 membranes", "description": "Scintillation Proximity Assay (SPA) Binding Assays\nCHO cells stably transfected with human Orexin type 1 receptors (CHO-hOX1) or HEK-293 cells transiently transfected with human Orexin type 2 receptors (HEK-hOX2) were collected after 16 h induction with 5 mM sodium butyrate. The cell pellets were re-suspended, homogenized in 15 mM Tris/HCl pH=7.5, 1 mM EGTA, 0.3 mM EDTA, 2 mM MgCl2, protease inhibitors and centrifuged at 40,000 g (20 min, 4° C.). After re-suspension, homogenization and centrifugation as above, the final pellets were re-suspended in 75 mM Tris/HCl pH=7.5, 1 mM EGTA, 0.3 mM EDTA, 12.5 mM MgCl2, 250 mM Sucrose, protease inhibitors, divided into aliquots and frozen down at −80° C.\nCHO-hOX1 cell membranes (6 μg ml^−1) or HEK-hOX2 membranes (8 μg ml^−1) were pre-coupled with 1.0 mg ml^−1 of Wheatgerm Agglutinin-coated Yttrium Silicate (YSi-WGA) SPA beads (Perkin Elmer) in buffer containing 25 mM HEPES pH=7.4, 1 mM CaCl2), 5 mM MgCl2, 0.01% (w/v) BSA, 0.02% (w/v) Pluronic F-127 by shaking at room temperature for 2.5-3 h.\n(§1) The binding was performed in a final volume of 200 μl. 100 μl of hOX1 or hOX2 beads-membranes suspension were added to 100 μl of [^3H]SB-674042 or [^3H]EMPA solutions (radioligand concentration 2 nM final in the assay), into the 96-well Isoplates containing the 2 μl/well of compounds to be tested. Nonspecific binding was measured in the presence of 1 μM Almorexant. Assay plates were then incubated at room temperature for 3 h before being counted in a Microbeta scintillation counter (PerkinElmer).\nData were analysed by non-linear regression analysis using XLfit Software."}, "[2]": {"target": "human Orexin type 1 receptors (Homo sapiens (Human), UniProt O43613)", "sequence (O43613 whole entry)": "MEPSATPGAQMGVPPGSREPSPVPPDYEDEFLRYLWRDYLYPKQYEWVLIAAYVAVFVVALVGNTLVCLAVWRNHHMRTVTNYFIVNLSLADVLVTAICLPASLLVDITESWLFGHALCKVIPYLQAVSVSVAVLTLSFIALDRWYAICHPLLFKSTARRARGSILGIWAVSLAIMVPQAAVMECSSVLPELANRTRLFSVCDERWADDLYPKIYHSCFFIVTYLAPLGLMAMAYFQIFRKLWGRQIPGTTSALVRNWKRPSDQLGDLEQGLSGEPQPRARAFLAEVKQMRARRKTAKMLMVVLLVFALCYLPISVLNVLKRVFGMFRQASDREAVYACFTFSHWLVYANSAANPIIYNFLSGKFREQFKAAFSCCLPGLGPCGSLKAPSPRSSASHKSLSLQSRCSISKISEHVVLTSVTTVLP", "test": "Scintillation Proximity Assay (SPA) binding assay, [3H]SB-674042 displacement, CHO-hOX1 membranes", "description": "as §1, with “Scintillation Proximity Assay (SPA) Binding Assays CHO cells stably transfected with human Orexin type 1 receptors (CHO-hOX1) or HEK-293 cells transiently transfected with human Orexin type 2 receptors (HEK-hOX2) were collected after 16 h induction with 5 mM sodium butyrate. […] The” for “The”, “(PerkinElmer). Data were analysed by non-linear regression analysis using XLfit Software.” for “(PerkinElmer).”"}}}
{"smiles": "Cc1ccc(-c2nccs2)c(C(=O)N2C3CC(C3)[C@@H](C)C2COc2ccc(F)cc2)n1", "note": "(mixture of isomers) [Example 96, cis-3-[(4-fluorophenoxy)methyl]-4-methyl-2-[6-methyl-3-(1,3-thiazol-2-yl)pyridine-2-carbonyl]-2-azabicyclo[3.1.1]heptane]", "values": [{"measurement": "OX2 pKi (SPA binding)", "setting": "[1]; Table 1, [3H]EMPA 2 nM", "value": 6.88}, {"measurement": "OX1 pKi (SPA binding)", "setting": "[2]; Table 1, [3H]SB-674042 2 nM", "value": 8.18}]}
{"smiles": "Cc1ccc(-c2nccs2)c(C(=O)N2C3CC(C3)[C@@H](C)C2COc2ccc(F)cc2)c1", "note": "(mixture of isomers) [Example 98, cis-3-[(4-fluorophenoxy)methyl]-4-methyl-2-[5-methyl-2-(1,3-thiazol-2-yl)benzoyl]-2-azabicyclo[3.1.1]heptane]", "values": [{"measurement": "OX2 pKi (SPA binding)", "setting": "[1]; Table 1, [3H]EMPA 2 nM", "value": 6.75}, {"measurement": "OX1 pKi (SPA binding)", "setting": "[2]; Table 1, [3H]SB-674042 2 nM", "value": 7.86}]}
{"smiles": "Cc1ccc(OCC2[C@H](C)C3CC(C3)N2C(=O)c2nc(C)ccc2-n2nccn2)nc1", "note": "(mixture of isomers) [Example 100, cis-4-methyl-2-[6-methyl-3-(2H-1,2,3-triazol-2-yl)pyridine-2-carbonyl]-3-{[(5-methylpyridin-2-yl)oxy]methyl}-2-azabicyclo[3.1.1]heptane]", "values": [{"measurement": "OX2 pKi (SPA binding)", "setting": "[1]; Table 1, [3H]EMPA 2 nM", "value": 5.96}, {"measurement": "OX1 pKi (SPA binding)", "setting": "[2]; Table 1, [3H]SB-674042 2 nM", "value": 7.03}]}
{"smiles": "Cc1ccc(-c2nccs2)c(C(=O)N2C3CC(C3)[C@H](C)C2COc2ccc(F)cc2)c1", "note": "(mixture of isomers) [Example 101, trans-3-[(4-fluorophenoxy)methyl]-4-methyl-2-[5-methyl-2-(1,3-thiazol-2-yl)benzoyl]-2-azabicyclo[3.1.1]heptane]", "values": [{"measurement": "OX2 pKi (SPA binding)", "setting": "[1]; Table 1, [3H]EMPA 2 nM", "value": 6.15}, {"measurement": "OX1 pKi (SPA binding)", "setting": "[2]; Table 1, [3H]SB-674042 2 nM", "value": 8.02}]}
{"smiles": "Cc1ccc(-c2nccs2)c(C(=O)N2C3CC(C3)[C@H](C)C2COc2ccc(F)cc2)n1", "note": "(mixture of isomers) [Example 106, trans-3-[(4-fluorophenoxy)methyl]-4-methyl-2-[6-methyl-3-(1,3-thiazol-2-yl)pyridine-2-carbonyl]-2-azabicyclo[3.1.1]heptane]", "values": [{"measurement": "OX2 pKi (SPA binding)", "setting": "[1]; Table 1, [3H]EMPA 2 nM", "value": 6.12}, {"measurement": "OX1 pKi (SPA binding)", "setting": "[2]; Table 1, [3H]SB-674042 2 nM", "value": 8.16}]}
{"smiles": "Cc1ccc(-n2nccn2)c(C(=O)N2C3CC(C3)[C@H](C)C2COc2ccc(F)c(F)c2)n1", "note": "(mixture of isomers) [Example 111, trans-3-[(3,4-difluorophenoxy)methyl]-4-methyl-2-[6-methyl-3-(2H-1,2,3-triazol-2-yl)pyridine-2-carbonyl]-2-azabicyclo[3.1.1]heptane]", "values": [{"measurement": "OX2 pKi (SPA binding)", "setting": "[1]; Table 1, [3H]EMPA 2 nM", "value": 5.99}, {"measurement": "OX1 pKi (SPA binding)", "setting": "[2]; Table 1, [3H]SB-674042 2 nM", "value": 7.53}]}
{"smiles": "Cc1nc(C(=O)N2C3CC(C3)[C@H](C)C2COc2ccc(F)cc2)c(-c2ncccn2)s1", "note": "(mixture of isomers) [Example 113, trans-3-[(4-fluorophenoxy)methyl]-4-methyl-2-[2-methyl-5-(pyrimidin-2-yl)-1,3-thiazole-4-carbonyl]-2-azabicyclo[3.1.1]heptane]", "values": [{"measurement": "OX2 pKi (SPA binding)", "setting": "[1]; Table 2, [3H]EMPA 2 nM", "value": 5.72}, {"measurement": "OX1 pKi (SPA binding)", "setting": "[2]; Table 2, [3H]SB-674042 2 nM", "value": 8.21}]}
{"smiles": "Cc1nc(C(=O)N2C3CC(C3)[C@H](C)C2COc2ccc(F)cn2)c(-c2ncccn2)s1", "note": "(mixture of isomers) [Example 116, trans-3-{[(5-fluoropyridin-2-yl)oxy]methyl}-4-methyl-2-[2-methyl-5-(pyrimidin-2-yl)-1,3-thiazole-4-carbonyl]-2-azabicyclo[3.1.1]heptane]", "values": [{"measurement": "OX2 pKi (SPA binding)", "setting": "[1]; Table 2, [3H]EMPA 2 nM", "value": 5.26}, {"measurement": "OX1 pKi (SPA binding)", "setting": "[2]; Table 2, [3H]SB-674042 2 nM", "value": 7.32}]}
{"smiles": "Cc1nc(C(=O)N2C3CC(C3)[C@H](C)C2COc2ccc(F)cn2)c(-c2ccccn2)s1", "note": "(mixture of isomers) [Example 117, trans-3-{[(5-fluoropyridin-2-yl)oxy]methyl}-4-methyl-2-[2-methyl-5-(pyridin-2-yl)-1,3-thiazole-4-carbonyl]-2-azabicyclo[3.1.1]heptane]", "values": [{"measurement": "OX2 pKi (SPA binding)", "setting": "[1]; Table 2, [3H]EMPA 2 nM", "value": 5.47}, {"measurement": "OX1 pKi (SPA binding)", "setting": "[2]; Table 2, [3H]SB-674042 2 nM", "value": 7.13}]}
{"smiles": "Cc1ccc(-c2ncccn2)c(C(=O)N2C3CC(C3)[C@H](C)C2COc2ccc(Cl)cn2)n1", "note": "(mixture of isomers) [Example 118, trans-3-{[(5-chloropyridin-2-yl)oxy]methyl}-4-methyl-2-[6-methyl-3-(pyrimidin-2-yl)pyridine-2-carbonyl]-2-azabicyclo[3.1.1]heptane]", "values": [{"measurement": "OX2 pKi (SPA binding)", "setting": "[1]; Table 2, [3H]EMPA 2 nM", "value": 5.75}, {"measurement": "OX1 pKi (SPA binding)", "setting": "[2]; Table 2, [3H]SB-674042 2 nM", "value": 7.39}]}
{"smiles": "Cc1nc(C(=O)N2C3CC(C3)[C@H](C)C2COc2ccc(F)cc2)c(-c2cnccn2)s1", "note": "(mixture of isomers) [Example 121, trans-3-[(4-fluorophenoxy)methyl]-4-methyl-2-[2-methyl-5-(pyrazin-2-yl)-1,3-thiazole-4-carbonyl]-2-azabicyclo[3.1.1]heptane]", "values": [{"measurement": "OX2 pKi (SPA binding)", "setting": "[1]; Table 2, [3H]EMPA 2 nM", "value": 5.54}, {"measurement": "OX1 pKi (SPA binding)", "setting": "[2]; Table 2, [3H]SB-674042 2 nM", "value": 7.36}]}
{"smiles": "Cc1ccc(-n2cccn2)c(C(=O)N2C3CC(C3)[C@H](C)C2COc2ccc(F)cc2)n1", "note": "(mixture of isomers) [Example 122, trans-3-[(4-fluorophenoxy)methyl]-4-methyl-2-[6-methyl-3-(1H-pyrazol-1-yl)pyridine-2-carbonyl]-2-azabicyclo[3.1.1]heptane]", "values": [{"measurement": "OX2 pKi (SPA binding)", "setting": "[1]; Table 2, [3H]EMPA 2 nM", "value": 5.4}, {"measurement": "OX1 pKi (SPA binding)", "setting": "[2]; Table 2, [3H]SB-674042 2 nM", "value": 7.22}]}
{"smiles": "Cc1nc(C(=O)N2C3CC(C3)[C@H](C)C2COc2ccc(F)cc2)c(-c2ccccn2)s1", "note": "(mixture of isomers) [Example 123, trans-3-[(4-fluorophenoxy)methyl]-4-methyl-2-[2-methyl-5-(pyridin-2-yl)-1,3-thiazole-4-carbonyl]-2-azabicyclo[3.1.1]heptane]", "values": [{"measurement": "OX2 pKi (SPA binding)", "setting": "[1]; Table 2, [3H]EMPA 2 nM", "value": 6.12}, {"measurement": "OX1 pKi (SPA binding)", "setting": "[2]; Table 2, [3H]SB-674042 2 nM", "value": 8.02}]}
{"smiles": "Cc1nc(C(=O)N2C3CC(C3)[C@H](C)C2COc2ccc(F)cc2)c(-n2nccn2)s1", "note": "(mixture of isomers) [Example 126, trans-3-[(4-fluorophenoxy)methyl]-4-methyl-2-[2-methyl-5-(2H-1,2,3-triazol-2-yl)-1,3-thiazole-4-carbonyl]-2-azabicyclo[3.1.1]heptane]", "values": [{"measurement": "OX2 pKi (SPA binding)", "setting": "[1]; Table 2, [3H]EMPA 2 nM", "value": 5.7}, {"measurement": "OX1 pKi (SPA binding)", "setting": "[2]; Table 2, [3H]SB-674042 2 nM", "value": 7.39}]}
{"smiles": "Cc1ccc(-n2ncc(C)n2)c(C(=O)N2C3CC(C3)[C@H](C)C2COc2ccc(F)cc2)n1", "note": "(mixture of isomers) [Example 127, trans-3-[(4-fluorophenoxy)methyl]-4-methyl-2-[6-methyl-3-(4-methyl-2H-1,2,3-triazol-2-yl)pyridine-2-carbonyl]-2-azabicyclo[3.1.1]heptane]", "values": [{"measurement": "OX2 pKi (SPA binding)", "setting": "[1]; Table 2, [3H]EMPA 2 nM", "value": 6.1}, {"measurement": "OX1 pKi (SPA binding)", "setting": "[2]; Table 2, [3H]SB-674042 2 nM", "value": 7.91}]}
{"smiles": "C[C@H]1C2CC(C2)N(C(=O)c2cc(F)ccc2-n2nccn2)C1COc1ccc(F)cc1", "note": "(mixture of isomers) [Example 128, trans-2-[5-fluoro-2-(2H-1,2,3-triazol-2-yl)benzoyl]-3-{(4-fluorophenoxy)methyl]-4-methyl-2-azabicyclo[3.1.1]heptane]", "values": [{"measurement": "OX2 pKi (SPA binding)", "setting": "[1]; Table 2, [3H]EMPA 2 nM", "value": 5.61}, {"measurement": "OX1 pKi (SPA binding)", "setting": "[2]; Table 2, [3H]SB-674042 2 nM", "value": 6.85}]}
{"smiles": "Cc1ccc(-n2nccn2)c(C(=O)N2C3CC(C3)[C@@H](C)C2COc2ccc(C(F)(F)F)cn2)n1", "note": "(mixture of isomers) [Example 129, cis-4-methyl-2-[6-methyl-3-(2H-1,2,3-triazol-2-yl)pyridine-2-carbonyl]-3-({[5-(trifluoromethyl)pyridin-2-yl]oxy}methyl)-2-azabicyclo[3.1.1]heptane]", "values": [{"measurement": "OX2 pKi (SPA binding)", "setting": "[1]; Table 2, [3H]EMPA 2 nM", "value": 5.14}, {"measurement": "OX1 pKi (SPA binding)", "setting": "[2]; Table 2, [3H]SB-674042 2 nM", "value": 6.81}]}
{"smiles": "Cc1ccc(-n2nccn2)c(C(=O)N2C3CC(C3)[C@@H](C)C2COc2ccc(F)cn2)n1", "note": "(mixture of isomers) [Example 130, cis-3-{[(5-fluoropyridin-2-yl)oxy]methyl}-4-methyl-2-[6-methyl-3-(2H-1,2,3-triazol-2-yl)pyridine-2-carbonyl]-2-azabicyclo[3.1.1]heptane]", "values": [{"measurement": "OX2 pKi (SPA binding)", "setting": "[1]; Table 2, [3H]EMPA 2 nM", "value": 6.08}, {"measurement": "OX1 pKi (SPA binding)", "setting": "[2]; Table 2, [3H]SB-674042 2 nM", "value": 6.9}]}
{"smiles": "Cc1ccc(-c2ccccn2)c(C(=O)N2C3CC(C3)[C@@H](C)C2COc2ccc(F)cn2)n1", "note": "(mixture of isomers) [Example 131, cis-2′-(3-{[(-fluoropyridin-2-yl)oxy]methyl}-4-methyl-2-azabicyclo[3.1.1]heptane-2-carbonyl)-6′-methyl-2,3′-bipyridine]", "values": [{"measurement": "OX2 pKi (SPA binding)", "setting": "[1]; Table 2, [3H]EMPA 2 nM", "value": 6.1}, {"measurement": "OX1 pKi (SPA binding)", "setting": "[2]; Table 2, [3H]SB-674042 2 nM", "value": 7.02}]}
{"smiles": "O=C(c1nc(Cl)sc1-c1ccccc1)N1C(COc2ccc(F)cc2)CC2CC1C2", "note": "(stereo not drawn) [Example 51]", "values": [{"measurement": "OX1 pKi (SPA binding)", "setting": "[2]; Table 1, [3H]SB-674042 2 nM", "value": 7.22}]}
